Experimental data from ChEMBL document CHEMBL4196147 (J Nat Prod, 2018).

How the values were obtained:
[1] = Cytotoxicity against human Huh7.5 cells assessed as decrease in cell viability after 48 hrs by MTT assay; format: functional, cell-based; details: Huh7.5, 48 h
HCT-116 = assay: Cytotoxicity against human HCT116 cells assessed as decrease in cell viability after 48 hrs by MTT assay; format: functional, cell-based; details: HCT-116, 48 h
K562 = assay: Cytotoxicity against human K562 cells assessed as decrease in cell viability after 48 hrs by MTT assay; format: functional, cell-based; details: K562, 48 h
L02 = assay: Cytotoxicity against human LO2 cells assessed as decrease in cell viability after 48 hrs by MTT assay; format: ADME, cell-based; details: L02, 48 h

Compound `CC(=O)N[C@@H]1C[C@H]2O[C@@](C)([C@@H]1O)n1c3ccccc3c3c4c(c5c6ccccc6n2c5c31)C(=O)NC4` has an IC50 [1] of 2.1 µM, an IC50 (HCT-116) of 1 µM and an IC50 (K562) of 5.2 µM. The IC50 (L02) was 24.2 µM.
In the case of `C[C@]12O[C@H](C[C@@H](N)[C@H]1O)n1c3ccccc3c3c4c(c5c6ccccc6n2c5c31)CNC4=O`, the IC50 [1] is reported as 0.4 µM, the IC50 (HCT-116) is reported as 0.2 µM and the IC50 (K562) is reported as 0.9 µM. For the same compound, the IC50 (L02) was 2.7 µM.
`C[C@@H]1O[C@@H](n2c3ccccc3c3c4c(c5c6ccccc6[nH]c5c32)CNC4=O)[C@H](O)[C@H](O)[C@H]1O` showed an IC50 [1] of 46 µM, an IC50 (HCT-116) of 9 µM and an IC50 (K562) of over 100 µM. For the same compound, the IC50 (L02) was 73.8 µM.
Work on `CC(=O)N[C@@H]1C[C@H]2O[C@@](C)([C@@H]1O)n1c3ccc(O)cc3c3c4c(c5c6ccccc6n2c5c31)C(=O)NC4` yielded an IC50 [1] of over 100 µM, an IC50 (HCT-116) of 2.7 µM and an IC50 (K562) of 8.8 µM. It also gave an IC50 (L02) of over 100 µM.
`CC(=O)c1cccn1[C@@H]1C[C@H]2O[C@@](C)([C@@H]1O)n1c3ccccc3c3c4c(c5c6ccccc6n2c5c31)C(=O)NC4` gave an IC50 [1] of 2.7 µM, an IC50 (HCT-116) of 3.9 µM and an IC50 (K562) of 10.5 µM. It also gave an IC50 (L02) of over 100 µM.
In the case of `C[C@@H]1O[C@@H](n2c3ccccc3c3c4c(c5c6ccccc6[nH]c5c32)CNC4=O)C[C@@H](N)[C@H]1O`, the IC50 [1] is reported as 7 µM, the IC50 (HCT-116) is reported as 5.1 µM and the IC50 (K562) is reported as 7.7 µM. The IC50 (L02) was 5.8 µM.
`CC(=O)N[C@@H]1C[C@H](n2c3ccccc3c3c4c(c5c6ccccc6[nH]c5c32)CNC4=O)O[C@@H](C)[C@@H]1O` gave an IC50 [1] of 35.2 µM, an IC50 (HCT-116) of over 100 µM and an IC50 (K562) of 32.4 µM. For the same compound, the IC50 (L02) was 41.1 µM.
